The record followed here is ChEMBL document CHEMBL1122312, “Synthesis and 5-lipoxygenase inhibitory activities of eicosanoid compounds” (J Med Chem, 1983).

For the assay, the system named is Arachidonate 5-lipoxygenase (Cavia porcellus). Put plainly: Inhibitory activity against 5-lipoxygenase at a dose of 0.1 mM.

Molecule `CCCCC/C=C\C\C=C/C=C/C=C/C1SC1CCCC(=O)OC` (stereo not given) displayed an inhibition of 60%. The figure for `CCCCC/C=C\C/C=C\C/C=C\CC1CC1CCCC(=O)O` (stereo not given) is 5%. `CCCCC/C=C\C/C=C\C/C=C\C=C\C(CO)CCCC(=O)O` (stereo not given) gave an inhibition of 47%. The figure for `CCCCC/C=C\C\C=C/C=C/C=C/[C@@H]1O[C@H]1CCCC(=O)O` is 78%; for `CCCCCCCCCCCCCCC1CC1CCCC(=O)O` (stereo in doubt; 25) it is 1%; for `CCCCC/C=C\C/C=C\C/C=C\C=C\C(=O)CCCC(=O)OC` it is 93%. The molecule `CCCCC/C=C\C/C=C\C/C=C\C1(/C=C\CCCC(=O)O)CC1` returned an inhibition of 34%. `CCCCCCCCCCCCCCC1CC1CCCC(=O)O` (stereo in doubt; 23) showed an inhibition of 49%. In turn, `CCCCC/C=C\C\C=C/C=C/C=C/C1CC1CCCC(=O)O` (stereo not given) showed an inhibition of 98%. The molecule `CCCCC/C=C\C\C=C/C=C/C=C/C1CC1CCCCC(=O)O` (stereo not given) displayed an inhibition of 86%.
